# Reference: ChEMBL document CHEMBL1201862, “PubChem BioAssay data set” (2004)
# Activity calls are given as the source filed them.
# Assays:
# [1] = target: T1, Oxysterols receptor LXR-beta (Homo sapiens, UniProt P55055); experiment: LXR agonists, Gal4 luciferase reporter, dose response, counter-screen for ssDAF-12 agonist project, cell-based, luminescence, HEK293, S. stercoralis campaign (AID 720737); format: functional; settings: read-out: IC50 (the source's name)
# T1 sequence (P55055 whole entry): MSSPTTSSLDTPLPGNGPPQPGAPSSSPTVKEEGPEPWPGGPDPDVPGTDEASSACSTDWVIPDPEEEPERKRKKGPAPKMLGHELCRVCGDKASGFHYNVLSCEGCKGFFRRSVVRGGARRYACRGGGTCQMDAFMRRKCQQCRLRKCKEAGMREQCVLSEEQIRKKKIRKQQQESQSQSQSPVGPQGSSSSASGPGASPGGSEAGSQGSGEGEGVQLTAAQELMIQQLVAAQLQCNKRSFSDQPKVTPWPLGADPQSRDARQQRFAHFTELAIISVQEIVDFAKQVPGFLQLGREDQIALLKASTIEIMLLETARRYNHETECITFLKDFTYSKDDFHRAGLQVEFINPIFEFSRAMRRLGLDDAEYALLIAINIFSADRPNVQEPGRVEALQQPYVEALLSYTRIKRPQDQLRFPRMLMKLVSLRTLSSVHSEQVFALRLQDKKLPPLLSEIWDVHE
# [2] = Luminescence-based cell-based high throughput dose response assay to identify activators of the DAF-12 from the parasite S. stercoralis (ssDAF-12).; format: functional
# Cytochrome P450 3A4 = Cytochrome P450 3A4 (Homo sapiens, UniProt P08684);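 note: CYP3A4 tested as one member of a cytochrome P450 panel screen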
# Chain of Cytochrome P450 3A4 (P08684 whole entry): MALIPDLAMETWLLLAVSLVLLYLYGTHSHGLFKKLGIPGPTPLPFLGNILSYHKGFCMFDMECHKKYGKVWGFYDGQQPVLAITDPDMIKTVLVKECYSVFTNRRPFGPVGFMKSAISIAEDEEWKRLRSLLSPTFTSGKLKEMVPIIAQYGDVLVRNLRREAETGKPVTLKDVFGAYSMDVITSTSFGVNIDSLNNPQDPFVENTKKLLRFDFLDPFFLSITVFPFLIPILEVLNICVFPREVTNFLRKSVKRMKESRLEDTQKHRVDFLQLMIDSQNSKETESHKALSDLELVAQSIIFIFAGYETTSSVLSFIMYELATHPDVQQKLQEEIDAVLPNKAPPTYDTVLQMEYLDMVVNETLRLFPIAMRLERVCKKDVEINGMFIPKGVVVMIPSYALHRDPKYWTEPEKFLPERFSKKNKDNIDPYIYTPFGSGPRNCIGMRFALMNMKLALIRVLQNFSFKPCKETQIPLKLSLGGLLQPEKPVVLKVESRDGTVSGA
# Protein skinhead-1 = target: T2, Protein skinhead-1 (Caenorhabditis elegans, UniProt P34707); format: functional
# T2 sequence (P34707 whole entry): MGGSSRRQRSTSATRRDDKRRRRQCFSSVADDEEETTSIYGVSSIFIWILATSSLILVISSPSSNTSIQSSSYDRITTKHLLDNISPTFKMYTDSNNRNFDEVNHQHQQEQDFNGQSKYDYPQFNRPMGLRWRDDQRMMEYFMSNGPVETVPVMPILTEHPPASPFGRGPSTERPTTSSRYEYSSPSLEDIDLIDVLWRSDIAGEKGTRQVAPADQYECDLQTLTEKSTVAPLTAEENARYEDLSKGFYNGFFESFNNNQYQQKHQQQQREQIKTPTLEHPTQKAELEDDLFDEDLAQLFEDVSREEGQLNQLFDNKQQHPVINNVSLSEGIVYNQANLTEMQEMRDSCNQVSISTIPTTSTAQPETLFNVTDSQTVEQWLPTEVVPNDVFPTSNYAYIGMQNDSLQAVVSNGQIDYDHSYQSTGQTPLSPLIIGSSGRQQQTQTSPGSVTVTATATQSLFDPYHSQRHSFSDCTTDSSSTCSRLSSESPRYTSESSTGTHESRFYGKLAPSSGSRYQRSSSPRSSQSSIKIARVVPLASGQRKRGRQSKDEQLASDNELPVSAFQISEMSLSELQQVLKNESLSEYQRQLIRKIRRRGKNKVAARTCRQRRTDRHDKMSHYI
# [3] = target: T1, Oxysterols receptor LXR-beta; format: functional, cell-based
# [4] = CTGF mRNA reduction in DLD1 cells – cell-based, DLD1 colon cancer, RT-qPCR, cherry-pick, dose response (AID 1053122); format: functional; settings: Cancer cell lines
# [5] = blockers of bursicon-stimulated LGR2 cAMP reporter – cell-based, HEK293, CRE-luciferase reporter, cherry pick, set 2, dose response (AID 743343); format: functional;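 note: transfected cells were stimulated with diluted bursicon conditioned medium after compound addition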
# [6] = toxicity toward HepG2 liver cells – cell-based, plate reader, cherry-pick, antagonist series, cytotoxicity control, dose response (AID 743416); format: functional
# [7] = viability loss in HEK293 cells – cell-based, plate reader, cherry-picked samples, cytotoxicity control, dose response (AID 743446); format: functional
# [8] = HIV-1 AD8 envelope cell-cell fusion blockers – cherry-pick, dose response (AID 652062); format: functional, cell-based;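 note: luciferase signal from cell-cell fusion driven by HIV-1 clade B AD8 Env; potency is for inhibitors of fusion seen as a drop in luminescence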
# [9] = blockers of HIV-1 ZM109 envelope-driven cell-cell fusion – HeLa effector, CEM target cells, luciferase, cherry-pick, dose response (AID 652058); format: functional, cell-based;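 note: luciferase signal from HIV-1 Env mediated cell-cell fusion of effector and target cells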
# BJ [10] = experiment: BJ-TERT fibroblast viability loss – cell-based, RAS-independent, luminescence, dose response (AID 1933); format: functional; settings: Homo sapiens
# [11] = viability loss in CEM21 cells – cell-based, CellTiter-Glo luminescence, cherry-picked, cytotoxicity control for viral fusion inhibitor project, dose response (AID 652042); format: functional;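 note: potency for signal decrease meaning cytotoxicity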
# [12] = blockade of melanocortin 4 receptor signaling – cell-based, plate reader, cherry pick, counter-screen for LGR2 antagonist project, dose response (AID 743444); format: functional;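 note: transfected HEK 293 cells stimulated with alpha-MSH peptide; potency of inhibitors of the alpha-MSH evoked signal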
# BJ [13] = experiment: BJ-TERT-LT-ST fibroblast viability loss – cell-based, RAS-independent, luminescence, dose response (AID 1935); format: functional; settings: Homo sapiens;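 note: BJ fibroblasts immortalized with TERT plus LT and ST oncogenes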
# [14] = DRD fibroblast viability loss – cell-based, non-viral oncogenic, luminescence, dose response (AID 1934); format: functional; settings: Homo sapiens
# [15] = A549 cell cytotoxicity, dose response, cytotoxicity control, plate reader, cherry-pick, antagonist series (AID 743412); format: functional, cell-based
# [16] = general cell-killing toxicity readout – plate reader, dry powder samples, cytotoxicity control for PAX8 inhibitor project, dose response (AID 743021); format: functional, cell-based
# [17] = Luminescence Cell-Based Dose Confirmation HTS to Identify Inhibitors of Platelet Dense Granule Release. [Related pubchem assays: 1663 (Primary HTS), 1678 (Summary of Project)]; format: functional
# [18] = HEK-293T viability loss after treatment – luminescence, T-cell screen hits, cytotoxicity control for TCR NF-kB inhibitor project, dose response (AID 489026); format: functional, cell-based;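 note: cells exposed to compound about 14 hours before the viability readout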
# [19] = off-target signal loss in HeLa-CEM21 co-culture – HeLa F-luc CTL cells, cherry-picked, counter-screen for HIV-1 Env fusion inhibitor project, dose response (AID 652040); format: functional, cell-based;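 note: potency for signal decrease marking cytotoxic or nonspecific inhibition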
# BJ [20] = experiment: cells; format: functional, cell-based; settings: Homo sapiens
# Paired box protein Pax-8 = Paired box protein Pax-8 (Homo sapiens, UniProt Q06710); experiment: PAX8 transcriptional activity inhibition in RMG-I – RMG-I cells, luciferase, cherry-pick, dose response (AID 687027); format: functional, cell-based;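 note: luciferase reporter driven by Pax8 target thyroperoxidase promoter measured by SteadyGlo luminescence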
# Chain of Paired box protein Pax-8 (Q06710 whole entry): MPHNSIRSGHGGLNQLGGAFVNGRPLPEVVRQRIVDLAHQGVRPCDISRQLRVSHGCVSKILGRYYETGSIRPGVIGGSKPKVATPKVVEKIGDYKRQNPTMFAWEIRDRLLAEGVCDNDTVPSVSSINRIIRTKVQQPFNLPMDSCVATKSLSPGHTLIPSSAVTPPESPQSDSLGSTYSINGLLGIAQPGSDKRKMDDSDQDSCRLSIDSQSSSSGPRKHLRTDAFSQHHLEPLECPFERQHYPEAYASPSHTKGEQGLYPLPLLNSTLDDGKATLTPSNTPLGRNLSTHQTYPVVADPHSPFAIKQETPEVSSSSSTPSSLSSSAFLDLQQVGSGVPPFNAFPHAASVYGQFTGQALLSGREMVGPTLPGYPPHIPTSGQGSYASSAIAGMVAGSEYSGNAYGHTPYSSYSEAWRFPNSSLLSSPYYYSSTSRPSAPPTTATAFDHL
# [21] = target: Luciferin 4-monooxygenase (Photinus pyralis, UniProt P08659); experiment: inhibition of purified Photinus pyralis luciferase – biochemical, luminescence, dose response (AID 1891)
# Chain of Luciferin 4-monooxygenase (P08659 whole entry, the tested form may be a part): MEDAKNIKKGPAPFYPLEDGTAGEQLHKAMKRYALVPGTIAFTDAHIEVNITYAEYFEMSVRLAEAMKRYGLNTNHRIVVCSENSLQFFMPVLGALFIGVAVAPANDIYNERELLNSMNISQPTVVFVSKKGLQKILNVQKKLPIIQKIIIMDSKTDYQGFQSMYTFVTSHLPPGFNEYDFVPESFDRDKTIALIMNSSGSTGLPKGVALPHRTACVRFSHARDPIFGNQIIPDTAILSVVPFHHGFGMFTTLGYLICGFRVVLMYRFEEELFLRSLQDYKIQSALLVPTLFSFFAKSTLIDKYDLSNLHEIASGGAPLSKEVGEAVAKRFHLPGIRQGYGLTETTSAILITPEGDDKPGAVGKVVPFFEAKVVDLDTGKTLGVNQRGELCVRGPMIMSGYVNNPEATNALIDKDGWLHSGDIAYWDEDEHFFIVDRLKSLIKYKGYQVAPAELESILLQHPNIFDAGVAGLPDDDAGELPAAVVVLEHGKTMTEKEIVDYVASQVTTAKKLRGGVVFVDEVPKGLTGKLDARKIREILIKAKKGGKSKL
# [22] = blockers of HIV-1 envelope-mediated cell-cell fusion – cherry-pick, dose response (AID 652057); format: functional, cell-based
# [23] = inhibitors of non-replicating M. tuberculosis, dose response, luciferase, dry powder (AID 651619); format: functional; settings: Mycobacterium tuberculosis
# [24] = inhibitors of non-replicating M. tuberculosis, dose response, luciferase, dry powder (AID 651620); format: functional; settings: Mycobacterium tuberculosis
# [25] = viability reduction in hepatoma cells – cell-based, ATP luminescence, dry powder, Set4, cytotoxicity control, dose response (AID 743143); format: functional; settings: HepG2
# fMet-Leu-Phe receptor = fMet-Leu-Phe receptor (Homo sapiens, UniProt P21462); experiment: formyl peptide receptor binders – dose response (AID 519); format: functional
# Chain of fMet-Leu-Phe receptor (P21462 whole entry): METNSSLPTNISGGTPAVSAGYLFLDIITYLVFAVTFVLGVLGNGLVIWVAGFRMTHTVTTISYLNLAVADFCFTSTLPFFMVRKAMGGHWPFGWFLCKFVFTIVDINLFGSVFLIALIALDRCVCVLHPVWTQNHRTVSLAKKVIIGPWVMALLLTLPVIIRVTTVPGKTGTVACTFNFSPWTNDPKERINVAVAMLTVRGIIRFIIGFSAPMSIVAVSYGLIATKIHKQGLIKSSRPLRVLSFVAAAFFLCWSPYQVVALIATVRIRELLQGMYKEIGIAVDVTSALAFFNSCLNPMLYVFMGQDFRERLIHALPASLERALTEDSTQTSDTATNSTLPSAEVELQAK
# Cytochrome P450 1A2 = target: T3, Cytochrome P450 1A2 (Homo sapiens, UniProt P05177);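 note: PubChem cytochrome P450 panel assay, CYP1A2 panel member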
# T3 sequence (P05177 whole entry): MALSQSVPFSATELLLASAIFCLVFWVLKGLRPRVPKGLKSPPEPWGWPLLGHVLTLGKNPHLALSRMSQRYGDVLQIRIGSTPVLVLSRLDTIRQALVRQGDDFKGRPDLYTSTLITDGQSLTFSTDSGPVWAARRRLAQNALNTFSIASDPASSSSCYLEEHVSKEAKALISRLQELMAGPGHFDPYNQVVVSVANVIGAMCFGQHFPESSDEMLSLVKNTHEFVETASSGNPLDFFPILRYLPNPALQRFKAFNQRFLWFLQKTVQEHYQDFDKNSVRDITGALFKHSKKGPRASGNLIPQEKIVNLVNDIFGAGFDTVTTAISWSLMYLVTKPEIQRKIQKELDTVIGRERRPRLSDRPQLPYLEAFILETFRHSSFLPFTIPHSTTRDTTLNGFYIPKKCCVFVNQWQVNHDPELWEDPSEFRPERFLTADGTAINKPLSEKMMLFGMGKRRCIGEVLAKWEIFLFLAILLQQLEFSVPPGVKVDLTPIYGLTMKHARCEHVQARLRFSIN
# [26] = Counterscreen for inhibitors of Trypanosoma brucei methionyl tRNA synthetase (MetRS): Luminescence-based cell-based high throughput dose response assay to identify compounds that are cytotoxic to Jurkat human T lymphocyte cells.; format: functional
# [27] = target: T4, Methionyl-tRNA synthetase, putative (Trypanosoma brucei brucei, UniProt Q38C91); format: functional, Trypanosoma brucei brucei strain 927/4 GUTat10.1
# T4 sequence (Q38C91 whole entry): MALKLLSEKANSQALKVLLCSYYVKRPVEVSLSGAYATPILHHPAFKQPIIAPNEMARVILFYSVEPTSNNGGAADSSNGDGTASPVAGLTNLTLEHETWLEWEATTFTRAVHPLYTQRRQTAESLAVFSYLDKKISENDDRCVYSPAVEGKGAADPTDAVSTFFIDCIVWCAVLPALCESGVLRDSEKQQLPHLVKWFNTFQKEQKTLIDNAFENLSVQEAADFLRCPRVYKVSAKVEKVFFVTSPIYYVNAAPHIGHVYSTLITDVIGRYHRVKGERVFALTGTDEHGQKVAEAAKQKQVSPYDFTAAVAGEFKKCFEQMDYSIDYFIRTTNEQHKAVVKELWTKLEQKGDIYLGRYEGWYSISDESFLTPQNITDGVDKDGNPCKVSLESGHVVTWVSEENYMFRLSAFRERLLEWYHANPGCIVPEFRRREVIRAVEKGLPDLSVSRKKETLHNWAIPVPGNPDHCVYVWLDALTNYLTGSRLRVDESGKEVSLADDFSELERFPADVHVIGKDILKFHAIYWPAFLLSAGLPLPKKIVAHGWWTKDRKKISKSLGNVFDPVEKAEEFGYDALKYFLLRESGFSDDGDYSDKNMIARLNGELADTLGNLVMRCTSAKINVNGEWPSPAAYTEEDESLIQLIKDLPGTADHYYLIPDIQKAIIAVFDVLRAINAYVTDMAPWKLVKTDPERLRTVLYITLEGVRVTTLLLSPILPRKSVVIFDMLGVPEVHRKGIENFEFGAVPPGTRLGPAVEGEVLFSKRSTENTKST
# [28] = Late stage counterscreen for inhibitors of Trypanosoma brucei methionyl tRNA synthetase (MetRS): Luminescence-based cell-based high throughput dose response assay to identify compounds that are cytotoxic to Jurkat human T lymphocyte cells.; format: functional
# [29] = target: T4, Methionyl-tRNA synthetase, putative; format: functional, Trypanosoma brucei brucei strain 927/4 GUTat10.1; remark: listed apart in the source
smiles,measurement,setting,value
Fc1ccc(-c2cn3cc(C(F)(F)F)cc(Cl)c3n2)cc1,EC50,cells,> 67.5 µM (inactive)
same,EC50,[1],> 67.5 µM (inactive)
same,IC50,[2],> 67.5 µM (inactive)
same,AC50,Cytochrome P450 3A4,14.1 µM (inconclusive)
same,IC50,Protein skinhead-1,> 100 µM (inactive)
same,EC50,[3],> 67.5 µM (inactive)
O=C(c1cccc(F)c1)N1CCCCN2[C@@H](CO)[C@H](c3ccc(C#CC4(O)CCCC4)cc3)[C@@H]2C1,AC50,[4],1.16 µM (active)
COc1ccccc1C(=O)Nc1nc2ccccc2s1,AC50,[5],0.121 µM (active)
same,AC50,[6],3.64 µM (active)
same,AC50,[7],3.61 µM (active)
same,AC50,[8],2.44 µM (active)
same,AC50,[9],10.9 µM (active)
same,EC50,BJ [10],8.4 µM (active)
same,AC50,[11],13.7 µM (active)
same,AC50,[12],0.172 µM (active)
same,EC50,BJ [13],15.8 µM (active)
same,EC50,[14],5.93 µM (active)
same,AC50,[15],3.04 µM (active)
same,AC50,[16],10.5 µM (active)
same,EC50,[17],3.96 µM (active)
same,IC50,[18],> 80 µM (inactive)
same,AC50,[19],2.59 µM (active)
same,EC50,BJ [20],5.6 µM (active)
same,AC50,Paired box protein Pax-8,3.69 µM (active)
same,EC50,[21],0.296 µM (active)
same,AC50,[22],2.05 µM (active)
c1ccc(-c2nnc(SC3CCCCC3)o2)cc1,IC90,[23],2 µM (active)
same,IC90,[24],2 µM (active)
O=C(CCCNC(=O)c1ccc(Cl)c(Cl)c1)N[C@@H]1CCCc2ccccc21,AC50,[25],> 52 µM (inactive)
Cc1nn2c(O)c(C#N)c(-c3ccccc3)nc2c1-c1ccccc1,Ki,fMet-Leu-Phe receptor,> 66.7 µM (inactive)
same,AC50,Cytochrome P450 1A2,20 µM (inconclusive)
O=C(NNC(=O)c1ccc(-n2cncn2)c([N+](=O)[O-])c1)c1ccc(Cl)cc1,IC50,[26],83.2 µM (inactive)
same,IC50,[27],2.72 µM (active)
same,IC50,[28],> 83.3 µM (inactive)
same,IC50,[29],4.43 µM (active)
